Source: the RepoRT retention time repository

Test: HILIC, Waters ACQUITY UPLC BEH Amide, 100 × 2.1 mm, 1.7 µm; A: water + 0.125% formic acid + 10 mM ammonium formate; B: 5% water + 95% acetonitrile + 0.125% formic acid + 10 mM ammonium formate; gradient (min/%B) 0/100 2/100 7.7/70 9.5/40 10.25/30 12.75/100 17/100
Details: stereoisomer not certain

| LC retention time [min] | Structure (SMILES) |
| --- | --- |
| 5.11 | Nc1ncnc2c1[nH]c(=O)n2C1CC(O)C(CO)O1 (stereo not given) [8-Oxo-2-deoxyadenosine] |
| 3.44 | O=c1[nH]cnc2c1ncn2C1CCC(CO)O1 (stereo not given) [2',3'-Dideoxyinosine] |
| 4.31 | CNS(=O)(=O)Cc1ccc2[nH]cc(CCN(C)C)c2c1 [Sumatriptan] |
| 7.35 | Cc1nc2ccc(CN(C)c3ccc(C(=O)NC(CCC(=O)O)C(=O)O)s3)cc2c(=O)[nH]1 (stereo not given) [Raltitrexed] |
| 5.61 | NC(C(=O)NC1C(=O)N2C(C(=O)O)=C(Cl)CSC12)c1ccccc1 (stereo not given) [Cefaclor] |
| 9.7 | C[S+](CCC(N)C(=O)[O-])CC1OC(n2cnc3c(N)ncnc32)C(O)C1O (stereo not given) [S-Adenosyl-methionine] |
| 7.67 | CNC(C)C(=O)O (stereo not given) [N-Methylalanine] |
| 8.15 | CC(=O)N[C@@H](CCCCN)C(=O)O [N.alpha.-Acetyl-L-lysine] |
| 5.31 | NC(CS)C(=O)O (stereo not given) [Cysteine] |
| 1.43 | COC(=O)c1cc(O)c(O)c(O)c1 [Methylgallate] |
| 1.33 | CCOC(=O)C(CCc1ccccc1)NC1CCc2ccccc2N(CC(=O)O)C1=O (stereo not given) [Benazepril] |
| 4.87 | CC(C)NCC(O)c1ccc(NS(C)(=O)=O)cc1 (stereo not given) [Sotalol] |
| 3.28 | COc1nc(C)nc(Cl)c1NC1=NCCN1 [Moxonidine] |
| 1.26 | COc1ccc(C=CC(=O)Nc2ccccc2C(=O)O)cc1OC [Tranilast] |
| 1.18 | COCc1c(C(C)C)nc(C(C)C)c(C=CC(O)CC(O)CC(=O)O)c1-c1ccc(F)cc1 (stereo not given) [Cerivastatin] |
| 2.31 | CN(C)CCCN1c2ccccc2CCc2ccc(Cl)cc21 [Clomipramine] |
| 9.9 | NCCCCC(NC(=O)C(N)CCC(=O)O)C(=O)O (stereo not given) [Glu-Lys] |
| 6.38 | Cn1cc(CC(N)C(=O)O)c2ccccc21 (stereo not given) [1-Methyltryptophan] |
| 1.32 | COc1ccc2[nH]cc(CC(=O)O)c2c1 [5-Methoxy-3-indoleacetic acid] |
| 0.92 | OCC1OCC(O)C(O)C1O (stereo not given) [1,5-Anhydrosorbitol] |
| 4.89 | CCCCCC(=O)O [Hexanoic acid] |
| 1.49 | CN1C(=O)CCC1c1cccnc1 (stereo not given) [Cotinine] |
| 1.07 | CC(=O)OC1CC(C)(C)C(=C=CC(C)=CC=CC(C)=CC=CC=C(C)C=CC=C(C)C(=O)CC23OC2(C)CC(O)CC3(C)C)C(C)(O)C1 (stereo not given) [Fucoxanthin] |
| 0.96 | CC(=O)OC1(C(C)=O)CCC2C3C=C(C)C4=CC(=O)CCC4(C)C3CCC21C (stereo not given) [Megestrol Acetate] |
| 6.68 | O=C(C=Cc1ccc(O)c(O)c1)OC1CC(O)(C(=O)O)CC(O)C1O (stereo not given) [Chlorogenic acid] |
| 1.53 | O=c1ccc2cccc(O)c2[nH]1 [2,8-Quinolinediol] |

| LC retention time [min] | Structure (SMILES) |
| --- | --- |
| 2.44 | c1ncc2[nH]cnc2n1 [Purine] |
| 1.15 | CC(C)c1nc(CN(C)C(=O)NC(C(=O)NC(Cc2ccccc2)CC(O)C(Cc2ccccc2)NC(=O)OCc2cncs2)C(C)C)cs1 (stereo not given) [Ritonavir] |
| 9.52 | Cc1cc2nc3c(=O)[nH]c(=O)nc-3n(CC(O)C(O)C(O)COP(=O)(O)OP(=O)(O)OCC3OC(n4cnc5c(N)ncnc54)C(O)C3O)c2cc1C (stereo not given) |
| 1.33 | Cn1nnc2c(C(N)=O)ncn2c1=O [Temozolomide] |
| 4.56 | Cc1cc2c(s1)Nc1ccccc1N=C2N1CCN(C)CC1 [Olanzapine] |
| 5.09 | CCCCCC(=O)OC(CC(=O)[O-])C[N+](C)(C)C [Hexanoyl-L-carnitine] |
| 1.26 | CC1CC2C3CCC4=CC(=O)C=CC4(C)C3(Cl)C(O)CC2(C)C1(O)C(=O)CO (stereo not given) [Beclomethasone] |
| 1.4 | O=c1c(O)c(-c2ccc(O)cc2)oc2cc(O)cc(O)c12 [Kaempferol] |
| 4.29 | COc1cc2nc(N(C)CCCNC(=O)C3CCCO3)nc(N)c2cc1OC (stereo not given) [Alfuzosin] |
| 2.54 | OCCOCCN1CCN(C2=Nc3ccccc3Sc3ccccc32)CC1 [Quetiapine] |
| 8.75 | NC(=O)CCC(NC(=O)C1CCCN1)C(=O)O (stereo not given) [Pro-Gln] |
| 2.83 | Cc1nccn1CC1CCc2c(c3ccccc3n2C)C1=O (stereo not given) [Ondansetron] |
| 1.91 | CN(CCCN1c2ccccc2CCc2ccccc21)CC(=O)c1ccc(Cl)cc1 [Lofepramine] |
| 5.16 | CSCCCN [3-Methylthiopropylamine] |
| 8.35 | CC(=O)NCCC(=O)NC(Cc1cnc[nH]1)C(=O)O [N-Acetyl-L-carnosine] |
| 7.74 | C[N+](C)(C)C(Cc1c[nH]c(=S)[nH]1)C(=O)[O-] (stereo not given) [Ergothioneine] |
| 4.65 | CNC(=C[N+](=O)[O-])NCCSCc1csc(CN(C)C)n1 [Nizatidine] |
| 9.6 | NC(=O)CCC(NC(=O)C(N)CCC(=O)O)C(=O)O (stereo not given) [Glu-Gln] |
| 2.3 | CN1CCN(C2=Nc3cc(F)ccc3Cc3ccccc32)CC1 [Fluperlapine] |
| 6 | Cc1cc2nc3c(=O)[nH]c(=O)nc-3n(CC(O)C(O)C(O)CO)c2cc1C (stereo not given) [Riboflavin] |
| 4.54 | Nc1ccn(C2CCC(CO)O2)c(=O)n1 (stereo not given) [2,3-Dideoxycytidine] |
| 1.34 | O=C(c1ccccc1)c1c(O)cc(O)cc1O [Phlorobenzophenone] |
| 5.18 | CCCCCCCCCCCCCCC(O)C(O)C(N)CO (stereo not given) [Phytosphingosine] |
| 1.29 | CCC(O)CC(=O)O (stereo not given) [3-Hydroxyvaleric acid] |
| 1.4 | CCOC(=O)C(CCc1ccccc1)NC(C)C(=O)N1C(C(=O)O)CC2CCCC21 (stereo not given) [Ramipril] |
| 1.77 | O=C1CCNC(=O)N1 [5,6-Dihydrouracil] |

| LC retention time [min] | Structure (SMILES) |
| --- | --- |
| 7.4 | CC(CN)C(=O)O (stereo not given) [3-Aminoisobutyric acid] |
| 1.95 | Nc1nc(Cl)nc2c1ncn2C1CC(O)C(CO)O1 (stereo not given) [Cladribine] |
| 2.56 | CN(C)CCC(c1ccc(Br)cc1)c1ccccn1 (stereo not given) [Dexbrompheniramine] |
| 2.56 | CC12CCC(=O)C=C1CCC1C2C(O)CC2(C)C1CCC2(O)C(=O)CO (stereo not given) [Hydrocortisone] |
| 1.52 | COc1cc2c(cc1OC)C1C(C)c3ccc(OC)c(OC)c3CN1CC2 (stereo not given) [Corydaline] |
| 1.39 | CCCC=CC=O [2-Hexenal] |
| 1.49 | CSc1ncnc2nc[nH]c12 [6-Methylmercaptopurine] |
| 4.23 | CNC(Cc1ccc(O)cc1)C(=O)[O-] (stereo not given) [Methyltyrosinate] |
| 1.02 | CC(c1ncncc1F)C(O)(Cn1cncn1)c1ccc(F)cc1F (stereo not given) [Voriconazole] |
| 1.73 | CC(=O)N1CCN(c2ccc(OCC3COC(Cn4ccnc4)(c4ccc(Cl)cc4Cl)O3)cc2)CC1 (stereo not given) [Ketoconazole] |
| 7.33 | Nc1nc2c(ncn2C2OC(CO)C(O)C2O)c(=O)[nH]1 (stereo not given) [Guanosine] |
| 5.52 | NC(N)=NC(=O)c1nc(Cl)c(N)nc1N [Amiloride] |
| 4.24 | CC12CC3CC(C)(C1)CC(N)(C3)C2 [Memantine] |
| 7.7 | O=S(=O)(O)CCNC(CO)(CO)CO [TES] |
| 3.5 | Cc1nc2ccccn2c(=O)c1CCN1CCC(C(=O)c2ccc(F)cc2)CC1 [Pirenperone] |
| 1.11 | CCc1ccc(CCOc2ccc(CC3SC(=O)NC3=O)cc2)nc1 (stereo not given) [Pioglitazone] |
| 4.46 | O=C(O)CCC(=O)O [Succinic acid] |
| 1.12 | CC1CC2C3CC(F)C4=CC(=O)C(Cl)=CC4(C)C3(F)C(O)CC2(C)C1(O)C(=O)CO (stereo not given) [Halometasone] |
| 7.67 | CCC(C)C(NC(=O)CN)C(=O)O (stereo not given) [Gly-Ile] |
| 1.36 | O=C(O)CC(O)CC(O)C=Cc1c(C2CC2)nc2ccccc2c1-c1ccc(F)cc1 (stereo not given) [Pitavastatin] |
| 9.16 | Nc1ccn(C2CC(O)C(COP(=O)(O)O)O2)c(=O)n1 (stereo not given) [2-Deoxycytidine-5-monophosphoric acid] |
| 0.97 | C=CC(C)(O)CCC=C(C)C (stereo not given) [Linalool] |
| 5.77 | CCCC(=O)OC(CC(=O)[O-])C[N+](C)(C)C [(R)-Butyrylcarnitine] |
| 2.73 | NC(=O)NC(N)=O [Biuret] |
| 6.09 | CC1OC(OCC2OC(Oc3c(-c4ccc(O)cc4)oc4cc(O)cc(O)c4c3=O)C(O)C(O)C2O)C(O)C(O)C1O (stereo not given) [Kaempferol-3-O-rutinoside] |

| Structure (SMILES) | LC retention time [min] |
| --- | --- |
| CN1C2CCC1C(C(=O)O)C(OC(=O)c1ccccc1)C2 (stereo not given) [Benzoylecgonine] | 3.63 |
| CN1CCC23c4c5ccc(O)c4OC2C(=O)CCC3C1C5 (stereo not given) [Hydromorphone] | 5.22 |
| N#CCc1c[nH]c2ccccc12 [3-Indoleacetonitrile] | 8.02 |
| CCC(C(N)=O)N1CCCC1=O (stereo not given) [Levetiracetam] | 1.45 |
| Cc1ncc2n1-c1ccc(Cl)cc1C(c1ccccc1F)=NC2 [Midazolam] | 1.29 |
| NCCc1c[nH]c2ccccc12 [Tryptamine] | 6.92 |
| c1ccncc1 [Pyridine] | 6.63 |
| COc1cc(N)c(Cl)cc1C(=O)NC1CN2CCC1CC2 (stereo not given) [Zacopride] | 4.66 |
| O=CC=Cc1ccccc1 [Cinnamaldehyde] | 9.18 |
| CN1CCC23CCCCC2C1Cc1ccc(O)cc13 (stereo not given) [Dextrorphan] | 3.87 |
| CNC(=O)Oc1ccc2c(c1)C1(C)CCN(C)C1N2C (stereo not given) [Physostigmine] | 3.17 |
| CCN(CC)CCN1C(=O)CN=C(c2ccccc2F)c2cc(Cl)ccc21 [Flurazepam] | 2.41 |
| CCOC(=O)COc1cc(-c2nn(C)c(OC(F)F)c2Cl)c(F)cc1Cl [Pyrafluefen-ethyl] | 1.02 |
